Assay results as given in patent publication US6465184B1, “Isolated nucleic acid molecule encoding peptides which form complexes with MHC molecules HLA-Cw*1601 and uses thereof” (Ludwig Institute for Cancer Research, priority 1993, dated 2002).

What was measured:
[1] = test system: lymphoblastoid cell line MZ2-EBV; assay: peptide sensitization chromium release assay: lysis by CTL 82/82 of peptide-incubated target cells; assay type: cell-based, human; conditions: chromium release after 4 hours; for sensitization of target cells to lysis by CTL 82/82: lymphoblastoid cell line from patient MZ2, various peptide concentrations
Method: (§1) The lysis assay employed was a chromium release assay following Herin et al., Int. J. Cancer, 39:390-396 (1987), which is incorporated herein by reference. The assay, however, is described herein. The target melanoma cells were grown in vitro, and then resuspended at 4×10^7 cells/ml in DMEM, supplemented with DMEM with 10 mM HEPES and 50% FCS, and incubated for 60 minutes at 37° C. with 200 μCi/ml of Na(^51Cr)O4. Labelled cells were washed three times with DMEM, supplemented with 10 mM HEPES. These were then resuspended in DMEM supplemented with 10 mM HEPES and 10% FCS, after which 100 μl aliquots containing 10^3 cells, were distributed into 96 well microplates. Samples of PBLs were added in 100 μl of the same medium, and assays were carried out in duplicate. Plates were centrifuged for 4 minutes at 100 g, and incubated for four hours at 37° C. in a 8% CO2 atmosphere.
(§2) Plates were centrifuged again, and 100 μl aliquots of supernatant were collected and counted. Percentage of ^51Cr release was calculated as follows: [formula]
where ER is observed, experimental ^51Cr release, SR is spontaneous release measured by incubating 10^3 labeled cells in 200 μl of medium alone, and MR is maximum release, obtained by adding 100 μl 0.3% Triton X-100 to target cells.
Several synthetic peptides were prepared on this basis. Peptides were synthesized on solid phase using F-moc for transient NH2-terminal protection as described by Atherton et al., J. Chem. Soc. Lond. Perkin Trans., 1:538-546 (1981) and characterized by mass spectrometry. All peptides were >90% pure as indicated by analytical HPLC. Lyophilized peptides were dissolved at 20 mg/ml in DMSO, diluted at 2 mg/ml in 10 mM acetic acid and stored at […]. Peptides were tested in a CTL stimulation assay with COS-7 cells transfected by HLA-Cw*1601 and incubated with the peptides. They were also tested by chromium release assay as previously described (Boon et al., J. Exp. Med., 152:1184-1193 (1980)). In this peptide sensitization assay, target cells were ^51Cr-labelled for one hour at 37° C. and washed extensively. 1000 target cells were then incubated in 96-well microplates in the presence of various concentrations of peptide for 30 minutes at 37° C. before CTL 82/82 cells were added. Chromium release was measured after 4 hours at 37° C.
The final concentration of peptides during the incubation of the target cells with the CTL is indicated. The arrow indicates the percentage of lysis of MZ2-MEL.43 cells. […] P1.HTR cells were transfected with HLA-Cw*1601 and were incubated with nonapeptide AARAVFLAL (SEQ ID NO: 3). […] Lysis of chromium-labelled cells was tested after 4 hours.

[2] = test system: P1.HTR cells transfected with HLA-Cw*1601; assay: chromium release assay: lysis by CTL clone 82/82 of P1.HTR transfected with HLA-Cw*1601 and incubated with peptide; assay type: cell-based, mouse; conditions: P1.HTR transfected with HLA-Cw*1601, 1 μM peptide, lysis tested after 4 hours
Method: as §1, §2
where ER is observed, experimental ^51Cr release, SR is spontaneous release measured by incubating 10^3 labeled cells in 200 μl of medium alone, and MR is maximum release, obtained by adding 100 μl 0.3% Triton X-100 to target cells. […]
Several synthetic peptides were prepared on this basis. […] Chromium release was measured after 4 hours at 37° C. […]

[3] = test system: cells transfected with HLA-Cw*1601; assay: CTL stimulation assay (TNF production) with HLA-Cw*1601-transfected cells incubated with peptide; assay type: cell-based; conditions: six CTL clones from patient MZ2; cells transfected with HLA-Cw*1601 and incubated with nonapeptide
Method: Cotransfectants were tested after 24 or 48 hours for their ability to stimulate the production of tumor necrosis factor (TNF) by CTLs (Traversari et al., Immunogenetics, 235:145-152 (1992)). 1500 CTLs were added in 100 μl of Iscove's medium (Gibco BRL) containing 10% human serum and 20 U/ml r-hu-IL-2 to microwells containing target cells. After 24 hours, the supernatant was collected and its TNF content was determined by testing its cytotoxic effect on cells of WEHI-164 clone 13 (Espevik et al., J. Immunol. Methods, 95:99-105 (1986)) in an MTT colorimetric assay (Hansen et al., J. Cancer, 39:390-396 (1989) and Traversari et al., supra).
Several synthetic peptides were prepared on this basis. Peptides were synthesized on solid phase using F-moc for transient NH2-terminal protection as described by Atherton et al., J. Chem. Soc. Lond. […] Chromium release was measured after 4 hours at 37° C.
From two MLTCs set up with different blood samples of patient MZ2, six CTL clones that recognized the BAGE/HLA-Cw*1601 antigen were derived. […] Vα and Vβ expression were determined as follows: Total RNA from the different CTL clones was prepared by using RNAzol*B (Cinna/Biotecx, Friendswood, Tex.). […] Specificity of TCR Vα and Vβ PCR amplification was assessed by Southern blotting and hybridization with ^32P-labelled Cα or Cβ oligonucleotides internal to the ones used for amplification.

Sequence | sensitization of target cells to lysis by CTL 82/82 [1] | lysis by CTL 82/82 of peptide-incubated transfected cells [2] | response of CTL clones recognizing the BAGE/HLA-Cw*1601 antigen [3] | EC50 ([1]; MZ2-EBV targets incubated 30 minutes with peptide, CTL 82/82 added, read-out: peptide concentration giving half-maximal lysis) [nM]
MAARAVFLA | not able to sensitize target cells to lysis | – | – | –
AARAVFLAL [Ala Ala Arg Ala Val Phe Leu Ala Leu, BAGE-encoded nonapeptide (amino acids 2-10) recognized in association with HLA-Cw*1601 by CTL 82/82] | Sensitization of a lymphoblastoid cell line from patient MZ2 to lysis by CTL 82/82 was observed | lysed by CTL 82/82 | responded | 30
ARAVFLALF | not able to sensitize target cells to lysis | – | – | –
